Among the data in PubChem BioAssay (NCI) are TGI and GI50 values, retold here.

Some test systems named below: SF-295 CNS; SK-MEL-5 melanoma; OVCAR-4 ovarian; MDA-MB-435; OVCAR-5 ovarian; SK-MEL-2 melanoma; U251 CNS; T-47D breast; HCT-15 colon; SR leukemia.
Test in all cases: inhibition of tumour cell growth, NCI panel, 48 h

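Protocol summary: plate cells (96-well), add compound at 5 concentrations, incubate 48 h, interpolate endpoints linearly. GI50 marks 50% less growth. Definition used: TGI = concentration required for complete inhibition of growth.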

In the case of `CCOc1ccc(Nc2nc(N)nc(N)c2N=O)cc1`, the TGI in the assay on SF-295 CNS, with SK-MEL-5 melanoma, in the assay on OVCAR-4 ovarian, with MDA-MB-435, in the assay with OVCAR-5 ovarian and in the assay on SK-MEL-2 melanoma was over 100 µM throughout. Further, the TGI in the assay with U251 CNS, with T-47D breast, in the assay on HCT-15 colon and in the assay with SR leukemia was over 100 µM each time.

Consider `c1ccc(CN2CCC(CNc3ncnc4ccccc34)C2)cc1` (stereo not given), for which the TGI is over 100 µM in the assay with SF-295 CNS; 82 µM in the assay with SK-MEL-5 melanoma; over 100 µM with OVCAR-4 ovarian; over 100 µM in the assay on MDA-MB-435; over 100 µM in the assay with OVCAR-5 ovarian; over 100 µM in the assay with SK-MEL-2 melanoma. Further, the TGI in the assay with U251 CNS is over 100 µM; with T-47D breast it was over 100 µM; in the assay with HCT-15 colon, over 100 µM; with SR leukemia, 65.1 µM.

In the case of `CC(C)(C)C(=O)C(N)C(=O)C(C)(C)C`, the TGI with SF-295 CNS, with SK-MEL-5 melanoma, in the assay with OVCAR-4 ovarian, in the assay on MDA-MB-435, in the assay on OVCAR-5 ovarian and in the assay with SK-MEL-2 melanoma was over 100 µM throughout. Moreover, the TGI in the assay with U251 CNS, with T-47D breast, in the assay on HCT-15 colon and in the assay with SR leukemia was over 100 µM in each case.

In the case of `COc1ccc(C2CC(c3cccc(Nc4ccncc4)c3)=NN2c2ccccc2)cc1` (stereo not given), the GI50 in the assay with SF-295 CNS is 1.8 µM; in the assay with SK-MEL-5 melanoma, 1.8 µM; in the assay on OVCAR-4 ovarian, 1.79 µM; with MDA-MB-435, 1.78 µM; in the assay on OVCAR-5 ovarian it was 3.29 µM; in the assay with SK-MEL-2 melanoma, 2.39 µM. Also, the GI50 with U251 CNS was 1.94 µM; in the assay with T-47D breast, 2.3 µM; in the assay with HCT-15 colon, 1.74 µM; with SR leukemia, 2 µM. The TGI came out at 3.32 µM in the assay on SF-295 CNS; 3.28 µM in the assay on SK-MEL-5 melanoma; 3.62 µM with OVCAR-4 ovarian; 3.49 µM with MDA-MB-435; 12.1 µM in the assay on OVCAR-5 ovarian; 5.01 µM in the assay on SK-MEL-2 melanoma. The TGI with U251 CNS worked out at 3.8 µM; in the assay on T-47D breast, 5.83 µM; in the assay on HCT-15 colon it was 3.44 µM; in the assay on SR leukemia, 5.59 µM.

As for `C/C(=C\C(=O)O)C(=O)N(C)c1ccccc1I`, the TGI with SF-295 CNS, with SK-MEL-5 melanoma, in the assay with OVCAR-4 ovarian, in the assay with MDA-MB-435, in the assay on OVCAR-5 ovarian and with SK-MEL-2 melanoma was over 100 µM each time. The TGI in the assay with U251 CNS, in the assay with T-47D breast, with HCT-15 colon and in the assay with SR leukemia was over 100 µM in each case.

For the molecule `Cn1c(COC(=O)NC2CCCCC2)c(COC(=O)NC2CCCCC2)c2ccc3ccccc3c21`, the TGI in the assay on SF-295 CNS was over 100 µM; in the assay with SK-MEL-5 melanoma, over 100 µM; in the assay with OVCAR-4 ovarian, over 100 µM; in the assay on MDA-MB-435, over 100 µM; with OVCAR-5 ovarian, over 100 µM; in the assay with SK-MEL-2 melanoma it was 93.4 µM. The TGI in the assay with U251 CNS, in the assay with T-47D breast, in the assay on HCT-15 colon and in the assay with SR leukemia was over 100 µM each time.

For `c1csc(-c2cc(-c3ccsc3)cs2)c1`, the TGI in the assay with SF-295 CNS, with SK-MEL-5 melanoma, in the assay with OVCAR-4 ovarian, in the assay with MDA-MB-435, in the assay with OVCAR-5 ovarian and in the assay with SK-MEL-2 melanoma was over 100 µM throughout. Also, the TGI in the assay on U251 CNS, with T-47D breast, with HCT-15 colon and in the assay on SR leukemia was over 100 µM in each case.

Regarding `COC(=O)c1sc2c(Cl)c(Cl)sc2c1Cl`, the TGI with SF-295 CNS, with SK-MEL-5 melanoma, with OVCAR-4 ovarian, in the assay on MDA-MB-435, in the assay on OVCAR-5 ovarian and with SK-MEL-2 melanoma was over 100 µM throughout. In addition, the TGI in the assay on U251 CNS, in the assay with T-47D breast, in the assay with HCT-15 colon and with SR leukemia was over 100 µM throughout.
